Test results as given in patent US20260174770A1, “COMBINATION THERAPY FOR TREATING CANCER” (SCORPION THERAPEUTICS, INC., priority 2022, published 2026).
“Also recorded” adds a separate entry of the source.

Experiments:
HCC1954 cells = assay: Cell viability (CellTiterGlo) in HCC1954 cells; assay type: cell-based; conditions: Homo sapiens, read-out: Compound 1 CTGlo GMean IC50 (95% CI); HCC1954 (H1047R), 72 hours
Description: (§1) Cell viability was measured using CellTiterGlo (Promega #G9243). Indicated cell lines were seeded according to Supplementary Table S3 in 50 μL of media in 384 well plates, with 72 hours of treatment at 37° C. with 5% CO2.

CAL148 cells = assay: Cell viability (CellTiterGlo) in CAL148 cells; assay type: cell-based; conditions: Homo sapiens, CAL-148, read-out: Compound 1 CTGlo GMean IC50 (95% CI); CAL148 (H1047R + D350N), 72 hours
Description: as §1

[1] = system: PIK3CA-mutant, ER+/HER2+ PDX tumor; assay: PDX model, combination with palbociclib; assay type: in vivo; conditions: palbociclib 50 mg/kg QD
DETROIT562 cells = assay: Cell viability (CellTiterGlo) in DETROIT562 cells; assay type: cell-based; conditions: Homo sapiens, Detroit 562, read-out: Compound 1 CTGlo GMean IC50 (95% CI); DETROIT562 (H1047R), 72 hours
Description: as §1

[2] = system: AurB kinase, phospho-H3 (Ser10); assay: Cellular AurB inhibition, phospho-H3 (Ser10); assay type: cell-based; conditions: 1-hour post treatment; Compound 1 up to 10 μM
BT20 cells = assay: Cell viability (CellTiterGlo) in BT20 cells; assay type: cell-based; conditions: Homo sapiens, BT-20, read-out: Compound 1 CTGlo GMean IC50 (95% CI); BT20 (H1047R + P539R), 72 hours
Description: as §1

AurB kinase = biological target: T1, AurB kinase (Homo sapiens, UniProt Q96GD4); assay: AurB kinase inhibition (kinase profiling); assay type: biochemical
T1 construct: purchased Eurofins Cerep (KinaseProfiler, IC50Profiler)

[3] = system: approximately 900 tumor cell lines; assay: Broad Institute PRISM high throughput cell viability screen; assay type: cell-based
Excerpt: Compound 1 was submitted to the Broad Institute PRISM high throughput cell viability screen (www.theprismlab.org/).

[4] = Juric et al. 2018; cited from earlier work
[5] = system: pAKT (S473), NCIH1048 cells (PI3Kα H1047R + K111R); assay: pAKT (S473) HTRF in NCIH1048 cells; assay type: cell-based; conditions: Homo sapiens, NCI-H1048, read-out: Alpelisib pAKT HTRF GMean GI50 (95% CI), 1 hour
Description: (§2) A 384-well phospho-AKT (S473) HTRF (PerkinElmer #64AKSPEH) assay was used for target engagement. Each well was seeded with cell numbers indicated in Supplementary Table S3 in a volume of 12.5 uL in phenol red-free media and then treated for 1 hour at 37° C., before reading on a PHERAstar plate reader.

[6] = system: pAKT (S473), DETROIT562 cells (PI3Kα H1047R); assay: pAKT (S473) HTRF in DETROIT562 cells; assay type: cell-based; conditions: Homo sapiens, Detroit 562, read-out: Alpelisib pAKT HTRF GMean GI50 (95% CI), 1 hour
Description: as §2

[7] = system: pAKT (S473), CAL33 cells (PI3Kα H1047R); assay: pAKT (S473) HTRF in CAL33 cells; assay type: cell-based; conditions: Homo sapiens, CAL-33, read-out: Alpelisib pAKT HTRF GMean GI50 (95% CI), 1 hour
Description: as §2

[8] = system: pAKT (S473), CAL148 cells (PI3Kα H1047R + D350N); assay: pAKT (S473) HTRF in CAL148 cells; assay type: cell-based; conditions: Homo sapiens, CAL-148, read-out: Alpelisib pAKT HTRF GMean GI50 (95% CI), 1 hour
Description: as §2

[9] = system: Cal33 (H1047R PI3Kα) xenograft tumors; conditions: mouse, in vivo
Description: All animal handling and treatment procedures were performed according to the approved Institutional Animal Care and Use Committee guidelines following the Association for Assessment and Accreditation of Laboratory Animal Care guidance. Cell line xenografts were performed in BALB/c nude mice except for the T47D model that used NSG mice implanted with 17-beta estradiol tablets (0.5 mg, 90-day release). PK/PD studies with xenograft tumors were established using standard protocols. PDX models were performed by XenoSTART (San Antonio, TX).

T1 sequence (Q96GD4 whole entry): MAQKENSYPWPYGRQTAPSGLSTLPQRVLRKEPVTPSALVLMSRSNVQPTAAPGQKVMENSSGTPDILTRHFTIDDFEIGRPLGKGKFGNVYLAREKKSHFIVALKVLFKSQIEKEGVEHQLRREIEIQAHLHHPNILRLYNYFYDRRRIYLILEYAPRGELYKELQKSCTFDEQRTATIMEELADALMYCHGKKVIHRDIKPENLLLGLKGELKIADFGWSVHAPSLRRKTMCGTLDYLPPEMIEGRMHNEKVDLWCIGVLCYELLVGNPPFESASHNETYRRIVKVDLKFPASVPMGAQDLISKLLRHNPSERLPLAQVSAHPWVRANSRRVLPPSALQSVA

SMILES | IC50 (HCC1954 cells) | IC50 (CAL148 cells) | tumor growth / tumor volume ([1]; Compound 1 100 mg/kg PO QD) | T/C ([1]; Compound 1 100 mg/kg QD) | IC50 (DETROIT562 cells) | inhibition of AurB / phospho-H3 (Ser10) in cells [2] | IC50 (BT20 cells) | IC50 (AurB kinase; Example 8) | inhibition at 10 µM (AurB kinase; at 10 μM) | IC50 (AurB kinase; legend of FIG. 5G) | growth sensitivity of PI3Kα helical-domain mutant tumor cells ([3]; compared with kinase-domain mutants) | sensitivity of PI3Kα kinase-domain mutant cell lines versus WT cell lines ([3]; grouped by PIK3CA status) | exposure of the maximum approved human dose [4] | GI50 [5] | GI50 [6] | GI50 [7] | GI50 [8] | serum insulin [9] | Δ Insulin, one-hour post dose [9]
Cc1c([C@@H](NC(=O)Nc2cnc(N)nc2)C(F)(F)F)oc2c(F)cc(F)cc12 (single isomer, unassigned) [Compound 1] | 457 nM | 705 nM | decreases tumor volume; also recorded: Strong tumor growth inhibition and stasis | 9% | 246 nM | no significant inhibition of AurB; also recorded: limited AurB inhibition in cells | 654 nM | 1600 nM | > 50% | ~1660 nM | nearly the same level of growth sensitivity | significantly more sensitive | – | – | – | – | – | – | –
Cc1nc(NC(=O)N2CCC[C@H]2C(N)=O)sc1-c1ccnc(C(C)(C)C(F)(F)F)c1 [Alpelisib, alpelisib, reference compound] | – | – | – | – | – | – | – | – | – | – | – | – | ~33,000 ng*hr/mL | 28 nM | 125 nM | 71 nM | 268 nM | raised serum insulin | +1.07^NS ng/mL
